Measurements: patent publication US4048007A, “Method of removing solvent residues from aqueous paper pulps” (The Dow Chemical Company, priority 1976, dated 1977)
Read-outs that look alike come from different tables or passages of the source.

Experiments:
[1] = Henry's Law constant H of solvent in water; type: physicochemical; conditions: for Value of H: Table II; for Henry's Law constant, H: Table I
Description: In a first or single stage, the incoming gas contains no solvent, yo is 0 and Em = y/y*. y is determined by analyzing a sample of the off-gas and y* can be calculated from the total vapor pressure P, the mole fraction (x) of the solvent in the liquid leaving the stage and H, the Henry's Law constant. That is, y*P (the partial pressure of the solvent) is equal to Hx, or y* = Hx/P.
For an aqueous solution of a sparingly soluble chlorinated hydrocarbon (for which Henry's law holds reasonably well over the full range of solubility up to saturation), H can be determined from the solvent solubility (c) in water and the vapor pressure (po) of the pure solvent, at a particular temperature; i.e., H = po /C. solubilities, vapor pressures and H values, at 20° C., are given below for three chlorinated hydrocarbon solvents.
The effect on H of operating at temperatures somewhat above or below […] is indicated in the following tabulation: […]

[2] = Air stripping of solvent from water (no fibers), time to strip 90% (Example 4); type: physicochemical; conditions: 200 ml water, 5 g solvent, air stripped as in Example 2 (20° C., 2 cubic feet per minute)
Description: In a single tray apparatus similar to that in Example 1, air at 20° C. was passed at a rate of 2 cubic feet per minute through 200 ml. batches of various consistency aqueous Kraft pulps containing initially 1% by volume (2.0 ml, or […]) of dispersed perchloroethylene, C2 Cl4, which is very sparingly soluble in water (150 ppm). After 3 minutes, the residual weight of C2 Cl4 found was:
200 ml. batches of water (no fibers) containing 5 g. of solvent were stripped with air as in Example 2. The time required to strip 90% of the solvent was measured: […]

[3] = Dissolved solvent found in 0.5% Kraft pulp prepared with solvent-saturated water (Example 5); type: physicochemical; conditions: 0.5% consistency Kraft pulp, water previously saturated with perchloroethylene
Description: A 0.5% consistency Kraft pulp suspension was prepared with water previously saturated with perchloroethylene.

[4] = cited from earlier work
[5] = cited from earlier work; for Vapor Pressure of pure solvent: 20° C., Table I; for Vapor Pressure at 20° C.: Example 4

Compound | Value of H ([1]; 15° C.) [mm Hg/ppm] | Henry's Law constant, H ([1]; 20° C.) [mm Hg/ppm] | Value of H ([1]; 20° C.) [mm Hg/ppm] | Value of H ([1]; 25° C.) [mm Hg/ppm] | Time Required to strip out 90% [2] [s] | dissolved C2 Cl4 content of suspension [3] [ppm] | Solubility in water ([4]; 20° C., Table I) | Solubility in water ([4]; Example 2, very sparingly soluble in water) [ppm] | Vapor Pressure of pure solvent [5] [mm Hg] | Vapor Pressure at 20° C. [5] [mm Hg]
ClC(Cl)=C(Cl)Cl [Perchloroethylene, perchloroethylene] | 0.0760 | 0.1000 | 0.1000 | 0.1267 | 125 | 176 | 147 ppm | 150 | 14.7 | 15
CC(Cl)(Cl)Cl [1,1,1-Trichloroethane] |  | 0.1429 |  |  | 32 |  | 700 ppm |  | 100 | 100
ClCCl [Methylene Chlorine] | 0.0183 | 0.0241 | 0.0241 | 0.0321 | 9 |  | 13,900 ppm |  |  | 340
